Measured values: ChEMBL document CHEMBL1121503, “Estrogen receptor based imaging agents. 2. Synthesis and receptor binding affinity of side-chain halogenated hexestrol derivatives” (J Med Chem, 1980)

Target: Estrogen receptor (Ovis aries) (UniProt P49885+Q9TU15)

Row | SMILES | RAC
1 | CCC(c1ccc(O)cc1)C(CCCl)c1ccc(O)cc1 (stereo not given) | 113
2 | CC[C@H](c1ccc(O)cc1)[C@@H](CC)c1ccc(O)cc1 | 300
3 | CCC(c1ccc(O)cc1)C(CCBr)c1ccc(O)cc1 (stereo not given) | 71
4 | Oc1ccc(C(=C(C(F)(F)F)C(F)(F)F)c2ccccc2)cc1 | 21
5 | C/C(=C(/C)c1ccc(O)cc1)c1ccc(O)cc1 | 20
6 | CCC(c1ccc(O)cc1)C(CCI)c1ccc(O)cc1 (stereo not given) | 60
7 | Oc1ccc(C(=C2CCCCC2)c2ccc(O)cc2)cc1 | 32
8 | Oc1ccc(/C(=C(/c2ccc(O)cc2)C(F)(F)F)C(F)(F)F)cc1 | 48
9 | CCC(c1ccc(O)cc1)C(CCF)c1ccc(O)cc1 (stereo not given) | 129
10 | Oc1ccc(/C(=C(/c2ccccc2)C(F)(F)F)C(F)(F)F)cc1 | 10
